According to ChEMBL document CHEMBL1145365, “The discovery of long acting beta2-adrenoreceptor agonists” (Bioorg Med Chem Lett, 2007):

Tests used:
[1] = Distribution coefficient, log D of the compound; details: octanol/water
[2] = biological target: Beta-2 adrenergic receptor (Homo sapiens, UniProt P07550)
Description: Agonist activity at human recombinant beta-2 adrenoceptor expressed in CHO cells assessed as elevation of cAMP

[3] = biological target: Beta-2 adrenergic receptor (Cavia porcellus) (UniProt Q8K4Z4); assay: Effect on guinea pig trachea model assessed as duration of muscle tone; format: functional, tissue-based; details: Muscle tissue
Chain of Beta-2 adrenergic receptor (Cavia porcellus) (Q8K4Z4 whole entry, looked up): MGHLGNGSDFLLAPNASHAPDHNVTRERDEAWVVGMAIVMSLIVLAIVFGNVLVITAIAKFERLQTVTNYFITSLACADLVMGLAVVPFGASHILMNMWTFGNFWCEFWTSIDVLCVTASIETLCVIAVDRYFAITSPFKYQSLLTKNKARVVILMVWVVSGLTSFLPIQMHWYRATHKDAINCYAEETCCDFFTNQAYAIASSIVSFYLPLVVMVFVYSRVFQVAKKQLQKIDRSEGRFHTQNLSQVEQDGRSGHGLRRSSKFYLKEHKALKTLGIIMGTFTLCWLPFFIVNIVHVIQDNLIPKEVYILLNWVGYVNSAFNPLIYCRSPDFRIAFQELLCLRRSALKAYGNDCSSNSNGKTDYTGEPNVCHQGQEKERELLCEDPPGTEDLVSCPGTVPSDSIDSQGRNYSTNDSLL

[4] = biological target: Beta-2 adrenergic receptor (Cavia porcellus) (UniProt Q8K4Z4); assay: Agonist potency at beta-2 adrenoceptor in guinea pig trachea model relative to salmeterol; format: functional, tissue-based
[5] = Half life in human liver microsome at 1 uM
in vitro = details: human, Caco-2, pH 7.4
Description: Permeability from apical to basolateral side of the Caco-2 cell membrane at 25 uM in pH 7.4

[6] = Volume of distribution in iv dosed rat; format: ADME, organism-based; details: in vivo, read-out: Vdss
[7] = Clearance in iv dosed rat; format: ADME, organism-based; details: in vivo
[8] = Half life in iv dosed rat; format: ADME, organism-based; details: in vivo

Chain of Beta-2 adrenergic receptor (P07550 whole entry): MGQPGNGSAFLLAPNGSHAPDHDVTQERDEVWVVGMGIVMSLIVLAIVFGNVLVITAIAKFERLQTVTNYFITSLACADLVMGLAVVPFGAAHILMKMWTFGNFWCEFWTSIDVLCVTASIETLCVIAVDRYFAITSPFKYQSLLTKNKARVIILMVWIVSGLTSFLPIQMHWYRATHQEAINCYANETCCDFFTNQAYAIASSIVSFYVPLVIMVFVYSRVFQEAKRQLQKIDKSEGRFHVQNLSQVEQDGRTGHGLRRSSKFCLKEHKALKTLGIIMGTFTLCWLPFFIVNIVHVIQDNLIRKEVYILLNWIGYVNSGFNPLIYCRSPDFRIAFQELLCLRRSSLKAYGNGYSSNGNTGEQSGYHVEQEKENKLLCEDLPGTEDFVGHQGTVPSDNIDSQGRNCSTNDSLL

logD [1]	TIME [3] [h]	Activity [4]	half-life at 1 µM ([5]; liver microsomes) [min]	SMILES	further results
2.2	4.6	0.5	10	Cc1ccc(CNC(=O)Cc2cccc(C[C@@H](C)NC[C@H](O)c3ccc(O)c(CO)c3)c2)cc1C	
2.4	8.1	1	15	C[C@H](Cc1cccc(CC(=O)NCc2ccc(OC(F)(F)F)cc2)c1)NC[C@H](O)c1ccc(O)c(CO)c1	
1.5	3.9	1	2	C[C@H](Cc1cccc(CC(=O)NCc2cccc3ccccc23)c1)NC[C@H](O)c1ccc(O)c(CO)c1	
2.6	9	0.4	4	C[C@H](Cc1cccc(CC(=O)NCc2ccc(Cl)c(Cl)c2)c1)NC[C@H](O)c1ccc(O)c(CO)c1	Papp A→B at 25 µM (in vitro): 1 ×10⁻⁶ cm/s; Vd [6]: 16.6 L/kg; clearance [7]: 123 mL/min/kg; half-life [8]: 90 min
	5.2	0.07		C[C@H](Cc1cccc(CC(=O)NCc2c(F)cccc2Cl)c1)NC[C@H](O)c1ccc(O)c(CO)c1	

The remaining lines, values behind:

SMILES	logD [1]	TIME [3] [h]	Activity [4]	half-life at 1 µM ([5]; liver microsomes) [min]	further results
C[C@H](Cc1cccc(CC(=O)NCc2ccccc2)c1)NC[C@H](O)c1ccc(O)c(CO)c1	0.8				EC50 [2]: 0.096 nM
O=C(Cc1cccc(CCNC[C@H](O)c2ccc(O)c(CO)c2)c1)NCc1ccccc1	0.4				EC50 [2]: 0.096 nM
COc1cccc(OC)c1CNC(=O)Cc1cccc(C[C@@H](C)NC[C@H](O)c2ccc(O)c(CO)c2)c1	0.8	1.5	0.3		
CC(C)(Cc1cccc(CC(=O)NCc2ccccc2)c1)NC[C@H](O)c1ccc(O)c(CO)c1	1				EC50 [2]: 0.02 nM
C[C@H](Cc1cccc(CC(=O)NCc2cc(Cl)cc(Cl)c2)c1)NC[C@H](O)c1ccc(O)c(CO)c1	2.3	7.2	0.5		Papp A→B at 25 µM (in vitro): 1 ×10⁻⁶ cm/s
C[C@H](Cc1cccc(CC(=O)NC2Cc3ccccc3C2)c1)NC[C@H](O)c1ccc(O)c(CO)c1	1.6	5.4	0.1		Papp A→B at 25 µM (in vitro): 1 ×10⁻⁶ cm/s
OCc1cc([C@@H](O)CNCCCCCCOCCCCc2ccccc2)ccc1O [SALMETEROL]	2.5		1		Vd [6]: 16.6 L/kg
C[C@H](Cc1cccc(CC(=O)NCc2cc(C(F)(F)F)ccc2F)c1)NC[C@H](O)c1ccc(O)c(CO)c1		6.6	0.9		half-life at 1 µM ([5]; microsomes): 9 min
